Data from PubChem BioAssay AID2060625 (Molecular Pharmacology Branch, DTP, NCI, 2025).

Tested on: 186277-243-T-J2-PDC spheroids with HUVEC/MSC, viability
Assay: Anticancer human tumor 186277-243-T-J2-PDC patient-derived colon adenocarcinoma cell line growth inhibition [CLK]
Conditions: for IC50: curve of first compound; for viability, T/C: stronger effect = lower value
Method in brief: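 Multi-cell-type spheroids combined patient-derived tumor cells with HUVEC endothelial cells and human mesenchymal stem cells. Paired agents were dosed in half-log steps down from about clinical Cmax, or from 10 microM where Cmax was unknown.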

[1] = second compound 0.0316 µM, first compound 0.0316 µM
[2] = second compound 0.0316 µM, first compound 0.1 µM
[3] = second compound 0.1 µM, first compound 0.0316 µM
[4] = second compound 0.1 µM, first compound 0.1 µM
[5] = second compound 0.316 µM, first compound 0.0316 µM
[6] = second compound 0.316 µM, first compound 0.1 µM
[7] = second compound 1 µM, first compound 0.0316 µM
[8] = second compound 1 µM, first compound 0.1 µM
[9] = second compound 3.16 µM, first compound 0.0316 µM
[10] = second compound 3.16 µM, first compound 0.1 µM
[11] = second compound 10 µM, first compound 0.0316 µM
[12] = second compound 10 µM, first compound 0.1 µM
[13] = second compound 0.0316 µM, first compound 0.316 µM
[14] = second compound 0.0316 µM, first compound 1 µM
[15] = second compound 0.0316 µM, first compound 3.16 µM
[16] = second compound 0.0316 µM, first compound 10 µM
[17] = second compound 0.1 µM, first compound 0.316 µM
[18] = second compound 0.1 µM, first compound 1 µM
[19] = second compound 0.1 µM, first compound 3.16 µM
[20] = second compound 0.1 µM, first compound 10 µM
[21] = second compound 0.316 µM, first compound 0.316 µM
[22] = second compound 0.316 µM, first compound 1 µM
[23] = second compound 0.316 µM, first compound 3.16 µM
[24] = second compound 0.316 µM, first compound 10 µM
[25] = second compound 1 µM, first compound 0.316 µM
[26] = second compound 1 µM, first compound 1 µM
[27] = second compound 1 µM, first compound 3.16 µM
[28] = second compound 1 µM, first compound 10 µM
[29] = second compound 3.16 µM, first compound 0.316 µM
[30] = second compound 3.16 µM, first compound 1 µM
[31] = second compound 3.16 µM, first compound 3.16 µM
[32] = second compound 3.16 µM, first compound 10 µM
[33] = second compound 10 µM, first compound 0.316 µM
[34] = second compound 10 µM, first compound 1 µM
[35] = second compound 10 µM, first compound 3.16 µM
[36] = second compound 10 µM, first compound 10 µM
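Note: compound exposure lasted seven days before readout.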
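Throughout, for viability, T/C: 100% = DMSO vehicle control wells.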

SMILES: Cn1ncnc1[C@H]1c2n[nH]c(=O)c3cc(F)cc(c23)N[C@@H]1c1ccc(F)cc1 + CNC(=O)c1ccc(Nc2nc(OC3CCCC3)c3c(-c4ccc5nc(C)oc5c4)c[nH]c3n2)c(OC)c1
- IC50 (second compound 0.0316 µM): > 100 nM
- IC50 (second compound 0.1 µM): > 100 nM
- IC50 (second compound 0.316 µM): < 0.316 nM
- IC50 (second compound 1 µM): < 0.316 nM
- IC50 (second compound 3.16 µM): < 0.316 nM
- IC50 (second compound 10 µM): < 0.316 nM
- viability, T/C (second compound 0.0316 µM, first compound 0.000316 µM): 94.7%
- viability, T/C (second compound 0.0316 µM, first compound 0.001 µM): 103%
- viability, T/C (second compound 0.0316 µM, first compound 0.00316 µM): 107%
- viability, T/C (second compound 0.0316 µM, first compound 0.01 µM): 105%
- viability, T/C [1]: 107%
- viability, T/C [2]: 113%
- viability, T/C (second compound 0.1 µM, first compound 0.000316 µM): 63.8%
- viability, T/C (second compound 0.1 µM, first compound 0.001 µM): 61.7%
- viability, T/C (second compound 0.1 µM, first compound 0.00316 µM): 66.6%
- viability, T/C (second compound 0.1 µM, first compound 0.01 µM): 62.3%
- viability, T/C [3]: 69.9%
- viability, T/C [4]: 68.5%
- viability, T/C (second compound 0.316 µM, first compound 0.000316 µM): 36.9%
- viability, T/C (second compound 0.316 µM, first compound 0.001 µM): 42.5%
- viability, T/C (second compound 0.316 µM, first compound 0.00316 µM): 46.3%
- viability, T/C (second compound 0.316 µM, first compound 0.01 µM): 46.2%
- viability, T/C [5]: 49.4%
- viability, T/C [6]: 48.6%
- viability, T/C (second compound 1 µM, first compound 0.000316 µM): 27%
- viability, T/C (second compound 1 µM, first compound 0.001 µM): 31.4%
- viability, T/C (second compound 1 µM, first compound 0.00316 µM): 31.4%
- viability, T/C (second compound 1 µM, first compound 0.01 µM): 33.2%
- viability, T/C [7]: 40%
- viability, T/C [8]: 30.2%
- viability, T/C (second compound 3.16 µM, first compound 0.000316 µM): 27.1%
- viability, T/C (second compound 3.16 µM, first compound 0.001 µM): 27.8%
- viability, T/C (second compound 3.16 µM, first compound 0.00316 µM): 31.1%
- viability, T/C (second compound 3.16 µM, first compound 0.01 µM): 30.9%
- viability, T/C [9]: 33%
- viability, T/C [10]: 30.7%
- viability, T/C (second compound 10 µM, first compound 0.000316 µM): 30.3%
- viability, T/C (second compound 10 µM, first compound 0.001 µM): 29.3%
- viability, T/C (second compound 10 µM, first compound 0.00316 µM): 31.9%
- viability, T/C (second compound 10 µM, first compound 0.01 µM): 30.9%
- viability, T/C [11]: 36.2%
- viability, T/C [12]: 32.3%

SMILES: Nc1ccn(C2OC(CO)C(O)C2(F)F)c(=O)n1 (stereo unspecified) + CNC(=O)c1ccc(Nc2nc(OC3CCCC3)c3c(-c4ccc5nc(C)oc5c4)c[nH]c3n2)c(OC)c1
- IC50 (second compound 0.0316 µM): < 31.6 nM
- IC50 (second compound 0.1 µM): < 31.6 nM
- IC50 (second compound 0.316 µM): < 31.6 nM
- IC50 (second compound 1 µM): < 31.6 nM
- IC50 (second compound 3.16 µM): < 31.6 nM
- IC50 (second compound 10 µM): < 31.6 nM
- viability, T/C [1]: 13.3%
- viability, T/C [2]: 10.8%
- viability, T/C [13]: 12%
- viability, T/C [14]: 14.9%
- viability, T/C [15]: 14.7%
- viability, T/C [16]: 13.9%
- viability, T/C [3]: 15.8%
- viability, T/C [4]: 13.3%
- viability, T/C [17]: 13.3%
- viability, T/C [18]: 13.3%
- viability, T/C [19]: 14.8%
- viability, T/C [20]: 12.4%
- viability, T/C [5]: 9.79%
- viability, T/C [6]: 9.9%
- viability, T/C [21]: 9.39%
- viability, T/C [22]: 11.3%
- viability, T/C [23]: 9.88%
- viability, T/C [24]: 8.65%
- viability, T/C [7]: 9.1%
- viability, T/C [8]: 8.33%
- viability, T/C [25]: 8.5%
- viability, T/C [26]: 8.25%
- viability, T/C [27]: 5.96%
- viability, T/C [28]: 6.34%
- viability, T/C [9]: 8.6%
- viability, T/C [10]: 7.49%
- viability, T/C [29]: 7.26%
- viability, T/C [30]: 8.76%
- viability, T/C [31]: 6.3%
- viability, T/C [32]: 6.38%
- viability, T/C [11]: 9.98%
- viability, T/C [12]: 9.04%
- viability, T/C [33]: 6.83%
- viability, T/C [34]: 7.74%
- viability, T/C [35]: 6.77%
- viability, T/C [36]: 5.84%

SMILES: O=c1[nH]cc(F)c(=O)[nH]1 + CNC(=O)c1ccc(Nc2nc(OC3CCCC3)c3c(-c4ccc5nc(C)oc5c4)c[nH]c3n2)c(OC)c1
- IC50 (second compound 0.0316 µM): > 10000 nM
- IC50 (second compound 0.1 µM): 5330 nM
- IC50 (second compound 0.316 µM): < 31.6 nM
- IC50 (second compound 1 µM): < 31.6 nM
- IC50 (second compound 3.16 µM): < 31.6 nM
- IC50 (second compound 10 µM): < 31.6 nM
- viability, T/C [1]: 97.9%
- viability, T/C [2]: 95.6%
- viability, T/C [13]: 109%
- viability, T/C [14]: 102%
- viability, T/C [15]: 86.2%
- viability, T/C [16]: 56.8%
- viability, T/C [3]: 70.6%
- viability, T/C [4]: 66.2%
- viability, T/C [17]: 64.2%
- viability, T/C [18]: 61.5%
- viability, T/C [19]: 58.1%
- viability, T/C [20]: 42.1%
- viability, T/C [5]: 43.7%
- viability, T/C [6]: 43.6%
- viability, T/C [21]: 39.4%
- viability, T/C [22]: 41%
- viability, T/C [23]: 37.3%
- viability, T/C [24]: 25.6%
- viability, T/C [7]: 30.9%
- viability, T/C [8]: 29.4%
- viability, T/C [25]: 28.1%
- viability, T/C [26]: 28.6%
- viability, T/C [27]: 24.9%
- viability, T/C [28]: 15%
- viability, T/C [9]: 27.6%
- viability, T/C [10]: 26.9%
- viability, T/C [29]: 24.8%
- viability, T/C [30]: 28.3%
- viability, T/C [31]: 24.4%
- viability, T/C [32]: 12.1%
- viability, T/C [11]: 30.1%
- viability, T/C [12]: 30.3%
- viability, T/C [33]: 29.4%
- viability, T/C [34]: 29.2%
- viability, T/C [35]: 27.6%
- viability, T/C [36]: 12%
